Assay results published in PubChem BioAssay AID2060910 (Molecular Pharmacology Branch, DTP, NCI, 2025).
“And” between values parts separate entries of the source, which are not always exact repeats. Equal values may be shown once.

System: 242566-281-R-J2-PDC complex spheroid viability
Assay: Anticancer human tumor 242566-281-R-J2-PDC patient-derived pancreatic carcinoma cell line growth inhibition [RAS]
Details: for viability, T/C: stronger effect = lower value
Summary of the method: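 Agents were tested in combination matrices in half-log decrements from a top concentration at or near clinical Cmax (10 microM if undetermined). Targets were multi-cell spheroids of tumour lines plus HUVEC and MSC stromal cells.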

[1] = curve of first compound, second compound 0.000949 µM
[2] = curve of first compound, second compound 0.003 µM
[3] = curve of first compound, second compound 0.00949 µM
[4] = curve of first compound, second compound 0.03 µM
[5] = curve of first compound, second compound 0.0949 µM
[6] = curve of first compound, second compound 0.3 µM
[7] = second compound 0.000949 µM, first compound 0.00316 µM
[8] = second compound 0.000949 µM, first compound 0.01 µM
[9] = second compound 0.000949 µM, first compound 0.0316 µM
[10] = second compound 0.000949 µM, first compound 0.1 µM
[11] = second compound 0.000949 µM, first compound 0.316 µM
[12] = second compound 0.000949 µM, first compound 1 µM
[13] = second compound 0.003 µM, first compound 0.00316 µM
[14] = second compound 0.003 µM, first compound 0.01 µM
[15] = second compound 0.003 µM, first compound 0.0316 µM
[16] = second compound 0.003 µM, first compound 0.1 µM
[17] = second compound 0.003 µM, first compound 0.316 µM
[18] = second compound 0.003 µM, first compound 1 µM
[19] = second compound 0.00949 µM, first compound 0.00316 µM
[20] = second compound 0.00949 µM, first compound 0.01 µM
[21] = second compound 0.00949 µM, first compound 0.0316 µM
[22] = second compound 0.00949 µM, first compound 0.1 µM
[23] = second compound 0.00949 µM, first compound 0.316 µM
[24] = second compound 0.00949 µM, first compound 1 µM
[25] = second compound 0.03 µM, first compound 0.00316 µM
[26] = second compound 0.03 µM, first compound 0.01 µM
[27] = second compound 0.03 µM, first compound 0.0316 µM
[28] = second compound 0.03 µM, first compound 0.1 µM
[29] = second compound 0.03 µM, first compound 0.316 µM
[30] = second compound 0.03 µM, first compound 1 µM
[31] = second compound 0.0949 µM, first compound 0.00316 µM
[32] = second compound 0.0949 µM, first compound 0.01 µM
[33] = second compound 0.0949 µM, first compound 0.0316 µM
[34] = second compound 0.0949 µM, first compound 0.1 µM
[35] = second compound 0.0949 µM, first compound 0.316 µM
[36] = second compound 0.0949 µM, first compound 1 µM
[37] = second compound 0.3 µM, first compound 0.00316 µM
[38] = second compound 0.3 µM, first compound 0.01 µM
[39] = second compound 0.3 µM, first compound 0.0316 µM
[40] = second compound 0.3 µM, first compound 0.1 µM
[41] = second compound 0.3 µM, first compound 0.316 µM
[42] = second compound 0.3 µM, first compound 1 µM
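Also: spheroids exposed to compound for 7 days before readout.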
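For viability, T/C in this document: 100% = DMSO vehicle control wells.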

In the case of `O=C(c1ccc(F)c(F)c1Nc1ccc(I)cc1F)N1CC(O)([C@@H]2CCCCN2)C1` + CCn1c(-c2cccnc2C(C)OC)c2c3cc(ccc31)N1CCOC(CC(NC(=O)C(C(C)C)N(C)C(=O)C3(F)CCN(C(=O)C#CC(C)(C)N(C)C)CC3)C(=O)N3CCCC(N3)C(=O)OCC(C)(C)C2)C1, the IC50 [1] is reported as 96.3 nM, the IC50 [2] is reported as 123 nM and the IC50 [3] is reported as 116 nM. The IC50 [4] was 119 nM, the IC50 [5] was 90.7 nM and the IC50 [6] was 52.1 nM. For the same molecule, the viability, T/C [7] was 92.3%, the viability, T/C [8] was 90.8% and the viability, T/C [9] was 51.1%. For the same molecule, the viability, T/C [10] was 53.2%, the viability, T/C [11] was 38.9% and the viability, T/C [12] was 19.5%. For the same molecule, the viability, T/C [13] was 87.2%, the viability, T/C [14] was 77.5% and the viability, T/C [15] was 65.7%. The viability, T/C [16] was 52.9%, the viability, T/C [17] was 38.7% and the viability, T/C [18] was 18.9%. It also gave a viability, T/C [19] of 101%, a viability, T/C [20] of 69% and a viability, T/C [21] of 78.5%. The viability, T/C [22] was 51.1%, the viability, T/C [23] was 33.7% and the viability, T/C [24] was 21%. It also gave a viability, T/C [25] of 93.3%, a viability, T/C [26] of 89.4% and a viability, T/C [27] of 76.9%. It also gave a viability, T/C [28] of 54.9%, a viability, T/C [29] of 29.3% and a viability, T/C [30] of 22.4%. It also gave a viability, T/C [31] of 97.9%, a viability, T/C [32] of 88.1% and a viability, T/C [33] of 68%. The viability, T/C [34] was 52%, the viability, T/C [35] was 26.5% and the viability, T/C [36] was 22.1%. The viability, T/C [37] was 87%, the viability, T/C [38] was 75.3% and the viability, T/C [39] was 60.6%. The viability, T/C [40] was 36.9%, the viability, T/C [41] was 24.2% and the viability, T/C [42] was 15.8%.
`C=CC(=O)N1CCN(c2nc(OCC3CCCN3C)nc3c(F)c(-c4nc(N)cc(C)c4C(F)(F)F)c(Cl)cc23)C(C)C1` (centres undefined) + CCn1c(-c2cccnc2C(C)OC)c2c3cc(ccc31)N1CCOC(CC(NC(=O)C(C(C)C)N(C)C(=O)C3(F)CCN(C(=O)C#CC(C)(C)N(C)C)CC3)C(=O)N3CCCC(N3)C(=O)OCC(C)(C)C2)C1 was tested, and the IC50 [1] was over 1000 nM, the IC50 [2] was over 1000 nM and the IC50 [3] was over 1000 nM. The IC50 [4] was over 1000 nM, the IC50 [5] was over 1000 nM and the IC50 [6] was over 1000 nM. It also gave a viability, T/C [7] of 111%, a viability, T/C [8] of 98.5% and a viability, T/C [9] of 88.2%. It also gave a viability, T/C [10] of 113%, a viability, T/C [11] of 93.8% and a viability, T/C [12] of 79.2%. It also gave a viability, T/C [13] of 115%, a viability, T/C [14] of 93.2% and a viability, T/C [15] of 99.8%. It also gave a viability, T/C [16] of 84.8%, a viability, T/C [17] of 95.4% and a viability, T/C [18] of 86.7%. For the same molecule, the viability, T/C [19] was 103%, the viability, T/C [20] was 87% and the viability, T/C [21] was 79.5%. The viability, T/C [22] was 76%, the viability, T/C [23] was 93.1% and the viability, T/C [24] was 83.9%. The viability, T/C [25] was 98.6%, the viability, T/C [26] was 110% and the viability, T/C [27] was 97.5%. For the same molecule, the viability, T/C [28] was 92.7%, the viability, T/C [29] was 78% and the viability, T/C [30] was 99.8%. The viability, T/C [31] was 86.6%, the viability, T/C [32] was 93.5% and the viability, T/C [33] was 92.6%. For the same molecule, the viability, T/C [34] was 86.9%, the viability, T/C [35] was 87% and the viability, T/C [36] was 90.5%. It also gave a viability, T/C [37] of 85.7%, a viability, T/C [38] of 87.3% and a viability, T/C [39] of 89.2%. For the same molecule, the viability, T/C [40] was 75.7%, the viability, T/C [41] was 95.1% and the viability, T/C [42] was 81.7%.
`NC1c2ccccc2OC12CCN(c1cnc3c(N4CCCc5ncccc54)n[nH]c3n1)CC2` (centres undefined) was tested, and the viability, T/C (compound 1 µM) was 68.9% [middle of 4 runs], the viability, T/C (compound 10 µM) was 51.8% [middle of 4 runs] and the IC50 (curve of compound) was > 10000 nM and 3300 nM and 3400 nM.
With `NC1c2ccccc2OC12CCN(c1cnc3c(N4CCCc5ncccc54)n[nH]c3n1)CC2` (centres undefined) + CCn1c(-c2cccnc2C(C)OC)c2c3cc(ccc31)N1CCOC(CC(NC(=O)C(C(C)C)N(C)C(=O)C3(F)CCN(C(=O)C#CC(C)(C)N(C)C)CC3)C(=O)N3CCCC(N3)C(=O)OCC(C)(C)C2)C1 the IC50 [1] was 2280 nM, the IC50 [2] was 2040 nM and the IC50 [3] was 3210 nM. It also gave an IC50 [4] of 1850 nM, an IC50 [5] of 1120 nM and an IC50 [6] of 329 nM. It also gave a viability, T/C [9] of 89.6%, a viability, T/C [10] of 80.3% and a viability, T/C [11] of 54.3%. For the same molecule, the viability, T/C [12] was 64.5%, the viability, T/C (second compound 0.000949 µM, first compound 3.16 µM) was 57.4% and the viability, T/C (second compound 0.000949 µM, first compound 10 µM) was 28.6%. It also gave a viability, T/C [15] of 92.4%, a viability, T/C [16] of 76.2% and a viability, T/C [17] of 62.7%. The viability, T/C [18] was 62.4%, the viability, T/C (second compound 0.003 µM, first compound 3.16 µM) was 54.4% and the viability, T/C (second compound 0.003 µM, first compound 10 µM) was 25.5%. For the same molecule, the viability, T/C [21] was 82.3%, the viability, T/C [22] was 77.1% and the viability, T/C [23] was 69.1%. The viability, T/C [24] was 64.6%, the viability, T/C (second compound 0.00949 µM, first compound 3.16 µM) was 51.9% and the viability, T/C (second compound 0.00949 µM, first compound 10 µM) was 28.3%. The viability, T/C [27] was 91%, the viability, T/C [28] was 81.3% and the viability, T/C [29] was 69.8%. For the same molecule, the viability, T/C [30] was 59.6%, the viability, T/C (second compound 0.03 µM, first compound 3.16 µM) was 41.1% and the viability, T/C (second compound 0.03 µM, first compound 10 µM) was 36.8%. The viability, T/C [33] was 75.1%, the viability, T/C [34] was 71.7% and the viability, T/C [35] was 62%. The viability, T/C [36] was 55%, the viability, T/C (second compound 0.0949 µM, first compound 3.16 µM) was 33.3% and the viability, T/C (second compound 0.0949 µM, first compound 10 µM) was 26.5%. It also gave a viability, T/C [39] of 68.2%, a viability, T/C [40] of 56.4% and a viability, T/C [41] of 52.8%. For the same molecule, the viability, T/C [42] was 38.9%, the viability, T/C (second compound 0.3 µM, first compound 3.16 µM) was 33.5% and the viability, T/C (second compound 0.3 µM, first compound 10 µM) was 21.1%.
